Data reported in BindingDB's records for doi:10.1021/acs.jmedchem.6b00247 (Sanford Burnham Prebys Medical Discovery Institute, 2016).

Test: Antagonist activity against HIV-1 Vif in human CEM cells assessed as inhibition of viral infection

COc1ccccc1NC(=O)c1ccccc1Sc1ccc([N+](=O)[O-])cc1
IC50: 4.5 µM
